What was measured:
[1] = molecular target: T1, Glucocorticoid receptor (GR) (Homo sapiens, UniProt P04150); assay: Glucocorticoid receptor transactivation, MMTV-bla HeLa CELLSENSOR β-lactamase reporter, agonist mode; assay type: cell-based; details: for % Activation at 100 nM: GR, 5 hours; for greater potency compared to the parent molecule cortisol: GR signaling pathway, relative to cortisol
T1 construct: host or cells: MMTV-bla HeLa CELLSENSOR
T1 sequence (P04150 1-777): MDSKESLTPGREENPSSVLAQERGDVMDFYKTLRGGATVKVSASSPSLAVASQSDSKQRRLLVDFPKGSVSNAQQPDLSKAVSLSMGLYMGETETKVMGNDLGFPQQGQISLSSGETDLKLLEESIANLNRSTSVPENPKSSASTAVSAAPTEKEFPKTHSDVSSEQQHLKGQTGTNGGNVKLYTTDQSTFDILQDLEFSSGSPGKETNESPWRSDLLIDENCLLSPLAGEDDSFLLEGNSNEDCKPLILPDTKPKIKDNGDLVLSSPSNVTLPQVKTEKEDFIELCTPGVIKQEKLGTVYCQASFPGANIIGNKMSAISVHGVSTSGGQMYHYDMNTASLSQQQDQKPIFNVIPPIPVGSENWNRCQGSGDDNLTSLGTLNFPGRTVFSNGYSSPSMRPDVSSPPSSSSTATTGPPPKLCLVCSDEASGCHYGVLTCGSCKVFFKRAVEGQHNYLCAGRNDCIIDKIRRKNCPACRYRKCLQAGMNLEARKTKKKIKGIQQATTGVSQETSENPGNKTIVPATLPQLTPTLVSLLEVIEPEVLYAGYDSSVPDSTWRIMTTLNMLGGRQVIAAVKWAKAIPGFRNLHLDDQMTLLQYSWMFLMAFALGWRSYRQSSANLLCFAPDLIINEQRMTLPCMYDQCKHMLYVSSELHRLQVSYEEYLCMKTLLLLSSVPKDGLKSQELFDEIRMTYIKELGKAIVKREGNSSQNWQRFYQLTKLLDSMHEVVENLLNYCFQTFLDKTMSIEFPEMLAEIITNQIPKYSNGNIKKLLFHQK
Method: Glucocorticoid receptor (GR) activation potency was assessed using a HeLa cell line containing the MMTV-bla reporter (MMTV-bla HeLa CELLSENSOR®, Invitrogen Corp., Carlsbad, Calif.). This cell line was stably transfected with an expression construct containing β-lactamase cDNA under control of the MMTV response element previously identified as a glucocorticoid receptor response element. […] All assays were performed as 10-point dose responses using a half log-fold dilution series starting with a maximum compound concentration of 100 nM. The compounds were incubated for 5 hours. The activation of endogenous GR leads to expression of the reporter β-lactamase which is detected by the conversion of a FRET substrate in a ratiometric assay format. This functional assay allows for measurement of receptor agonism by compounds and can be used to determine compound potency and selectivity. Assay reproducibility was determined by calculating Z′ values for untreated versus maximum stimulation.

[2] = patients, applied locally via eye drops, compared to dexamethasone, prednisolone and fluorometholone; cited from earlier work
[3] = molecular target: T2, fusion protein GAL4(DBD)-MR(LBD) (Homo sapiens, UniProt P08235); assay: Mineralocorticoid receptor transactivation, UAS-bla HEK 293T CELLSENSOR β-lactamase reporter, agonist mode; assay type: cell-based; details: for % Activation at 100 nM: MR, UAS-bla HEK 293T, agonist mode, 16 hours
T2 sequence (P08235 726-964 limits assumed): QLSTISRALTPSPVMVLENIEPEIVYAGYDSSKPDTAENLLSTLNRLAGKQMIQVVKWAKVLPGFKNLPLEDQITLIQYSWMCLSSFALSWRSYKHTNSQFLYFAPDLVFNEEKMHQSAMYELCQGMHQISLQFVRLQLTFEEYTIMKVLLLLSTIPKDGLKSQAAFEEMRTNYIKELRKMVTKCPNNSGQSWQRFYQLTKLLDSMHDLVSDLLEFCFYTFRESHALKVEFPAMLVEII
Method: Mineralocorticoid receptor (MR) activation potency was assessed using a HEK 293T cell line containing the UAS-bla reporter (UAS-bla HEK 293T CELLSENSOR®). This cell line was stably cotransfected with an expression construct containing β-m lactamase cDNA under control of the GAL4 Upstream Activator Sequence (UAS) and another expression construct encoding for the fusion protein GAL4(DBD)-MR(LBD). […] All assays were performed as 10-point dose responses using a half log-fold dilution series starting with a maximum compound concentration of 100 nM. The compounds were incubated for 16 hours. The activation of the fusion protein GAL4(DBD)-MR(LBD) leads to expression of the reporter β-lactamase which is detected by the conversion of a FRET substrate in a ratiometric assay format. This functional assay allows for measurement of receptor agonism by compounds and can be used to determine compound potency and selectivity. Assay reproducibility was determined by calculating Z′ values for untreated versus maximum stimulation.

In the case of `C[C@]12CCC(=O)C=C1CC[C@@H]1[C@@H]2[C@@H](O)C[C@@]2(C)[C@H]1CC[C@]2(O)C(=O)CO`, the “% Activation at 100 nM” value ([1]; MMTV-bla HeLa, agonist mode) is reported as 43%.

With `C[C@]12CCC(=O)C=C1CC[C@@H]1[C@@H]2[C@@H](O)C[C@@]2(C)[C@H]1CC[C@]2(OC(=O)c1ccccc1)C(=O)CO` [cortisol 17-benzoate] the “greater potency compared to the parent molecule cortisol” value [1] was “about 30 fold”.

For `C[C@]12CCC(=O)C=C1CC[C@@H]1[C@@H]2[C@@H](O)C[C@@]2(C)[C@H]1CC[C@]2(OC(=O)C1CCCC1)C(=O)CO` [cortisol 17-cyclopentanoate], the “greater potency compared to the parent molecule cortisol” value [1] was “about 30 fold”.

For `C[C@]12CCC(=O)C=C1CC[C@@H]1[C@@H]2[C@@H](O)C[C@@]2(C)[C@H]1CC[C@]2(O)C(=O)CO` [cortisol], the “effect on intraocular pressure” value [2] is given as “minimal effect on intraocular pressure”.

With `C[C@]12CCC(=O)C=C1CC[C@@H]1[C@@H]2[C@@H](O)C[C@@]2(C)[C@H]1CC[C@]2(OC(=O)CCS(=O)(=O)c1ccccc1)C(=O)CO` [drawing 14] the “% Activation at 100 nM” value ([1]; MMTV-bla HeLa, agonist mode) was 17% and the EC50 ([1]; MMTV-bla HeLa, agonist mode, 5 hours incubation, max concentration 100 nM, one experiment in duplicate) was > 100 nM.

With `C[C@]12CCC(=O)C=C1CC[C@@H]1[C@@H]2[C@@H](O)C[C@@]2(C)[C@H]1CC[C@]2(OC(=O)Cc1ccc(Br)cc1)C(=O)CO` [drawing 15] the “% Activation at 100 nM” value ([1]; MMTV-bla HeLa, agonist mode) was 0%.

With `C[C@]12CCC(=O)C=C1CC[C@@H]1[C@@H]2[C@@H](O)C[C@@]2(C)[C@H]1CC[C@]2(OC(=O)CCS(=O)(=O)c1ccccc1)C(=O)CO` [drawing 18] the EC50 [3] was 3.48 nM and the “% Activation at 100 nM” value [3] was 79%.

In the case of `C[C@]12CCC(=O)C=C1CC[C@@H]1[C@@H]2[C@@H](O)C[C@@]2(C)[C@H]1CC[C@]2(OC(=O)Cc1ccc(Br)cc1)C(=O)CO` [drawing 19], the EC50 [3] is reported as 5.53 nM and the “% Activation at 100 nM” value [3] is reported as 77%.
